Data on 1 compound can be found in patent US20030124105A1, “PROGRAMMED CELL DEATH GENES AND PROTEINS” (priority 1993, published 2003).

One assay deals with HeLa cells. The format is cell-based, human.
For another assay, the system named is HeLa/crmA cells. Particulars: CHX 20 μg/ml, TNF-a 5 ng/ml, 24 h, trypan blue dye exclusion, mean ± SEM.

Experimental for HeLa/crmA cells: Dosage response of HeLa and HeLa/crmA cells to TNF-α treatment was tested as follows. Cells were seeded in DMEM plus 10% fetal calf serum in a 24-well plate at a density of 4×10^4 cells per well. After overnight incubation, the cells were washed twice with serum-free DMEM. Drugs were then added to a total volume of 0.2 ml of serum-free DMEM and the cells were incubated for 24 hours. Cells were then trypsinized and dead cells scored on a hemocytometer by trypan blue exclusion (Sigma, St. Louis, Mo.). At least 200 cells were scored per well. Each concentration was tested in duplicate each time.
The effect of crmA expression on TNF-induced apoptosis was tested. […] HeLa cells or HeLa/crmA cells were treated with cycloheximide (CHX) (20 μg/ml, Sigma), TNF-α (5 ng/ml, Sigma), or a combination of both drugs. […] Control HeLa and HeLa/crmA cells were tested for the ability to resist increasing amounts of TNF-α in the presence of 10 μg/ml CHX (FIG. 18). […] The dose response of crmA-expressing HeLa cells to increasing amounts of TNF-α in the presence of 10 μg/ml of CHX was tested.

On to `C[C@@H]1C[C@@H]([C@H](O)CC2CC(=O)NC(=O)C2)C(=O)[C@@H](C)C1` [CHX, cycloheximide], for which the entries for the “% dead cells” value in the assay on HeLa cells and with HeLa/crmA cells were 2.9 ± 0.7% and 3.8 ± 0.5%, respectively.
